For orientation: EC50 means the midpoint of the concentration-response curve. High values mean a less potent agent, low ones a more potent agent.

One test has as its system dengue virus serotype 1. The test is described as follows: microbe, parasite or virus in culture. The class given is cell-based.
Another test has as its system HCV replicon. The test is described as follows: Cell-based HCV replicon assay. To be noted: Hepatitis C virus. (In antiviral work, replicon cells carry a viral genome segment that copies itself.)
In another test the test system is West Nile virus. The test is described as follows: microbe, parasite or virus in culture. Format: cell-based.
For another test, the system named is dengue virus serotype 4. The test is described as follows: microbe, parasite or virus in culture. Format: cell-based.
Another test has as its system TSV01 dengue virus 2. The test is described as follows: Mouse model of dengue infection (viremia by plaque assay). To be noted: 25 mg/kg bid, compared to the control group.
For test [1], the system named is Japanese encephalitis virus. The test is described as follows: microbe, parasite or virus in culture. Format: cell-based.
A further test concerns yellow fever virus. The test is described as follows: microbe, parasite or virus in culture. The class given is cell-based.
The test system of another test is dengue virus serotype 2. The test is described as follows: microbe, parasite or virus in culture. Format: cell-based.

`C#C[C@@]1(O)[C@H](O)[C@@H](CO)O[C@H]1n1ccc2c(N)ncnc21` [Example 1, (2R,3R,4R,5R)-2-(4-Amino-pyrrolo[2,3-d]pyrimidin-7-yl)-3-ethynyl-5-hydroxymethyl-tetrahydrofuran-3,4-diol]: the EC50 is roughly 200 nM in the test on dengue virus serotype 1; roughly 100 nM with HCV replicon; roughly 3750 nM with West Nile virus; roughly 200 nM in the test on dengue virus serotype 4; roughly 1300 nM in test [1]; roughly 900 nM with yellow fever virus. Also, the reduction in viremia result with TSV01 dengue virus 2 is on record as “about 20 fold”.

As to `C#C[C@@]1(O)[C@H](O)[C@@H](CO)O[C@H]1n1cc(F)c2c(N)ncnc21` [Example 4, (2R,3R,4R,5R)-2-(4-Amino-5-fluoro-pyrrolo[2,3-d]pyrimidin-7-yl)-3-ethynyl-5-hydroxymethyl-tetrahydrofuran-3,4-diol], in the test on dengue virus serotype 2, the EC50 was roughly 400 nM.

As to `C#Cc1cn([C@@H]2O[C@H](CO)[C@@H](O)[C@]2(O)C#C)c2ncnc(N)c12` [Example 8, (2R,3R,4R,5R)-2-(4-Amino-5-ethynyl-pyrrolo[2,3-d]pyrimidin-7-yl)-3-ethynyl-5-hydroxymethyl-tetrahydro-furan-3,4-diol], the EC50 with dengue virus serotype 2 is roughly 600 nM.

These data come from US8278282B2, “Nucleoside analogs for treatment of viral infections” (Novartis AG, priority 2007, dated 2012).
